Results as given in paper PMC9305750 (Chemmedchem, 2022).
Where “and” joins values, the source holds several entries; their conditions need not be identical. Identical values can stand only once. Entries after “also recorded” stand apart in the source; their conditions may differ. Like-named read-outs stand apart in the source and are kept apart here.

Columns and labels:
[1] = target: T1, human Nurr1 ligand binding domain (LBD) fused to the Gal4 DNA binding domain (Homo sapiens, UniProt P43354); test: Hybrid Gal4-Nurr1 reporter gene assay in transiently transfected HEK293T cells; format: cell-based; details: for fold act. (maximum Nurr1 activation vs. DMSO (0.1 %)): purified compounds, mean±S.E.M., n≥3
T1 sequence (P43354 360-595 limits assumed): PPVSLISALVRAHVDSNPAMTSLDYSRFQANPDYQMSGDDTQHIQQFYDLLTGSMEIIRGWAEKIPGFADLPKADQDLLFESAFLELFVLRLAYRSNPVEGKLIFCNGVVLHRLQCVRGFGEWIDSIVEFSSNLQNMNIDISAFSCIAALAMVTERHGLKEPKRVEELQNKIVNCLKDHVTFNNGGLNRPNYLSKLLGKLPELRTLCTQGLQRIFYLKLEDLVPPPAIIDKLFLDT

Nurr1 LBD = Nurr1 LBD (Homo sapiens, UniProt P43354); test: HTRF assay of Nurr1 LBD homodimerization; format: biochemical
Sequence of Nurr1 LBD (P43354 360-595 limits assumed): as above

[2] = target: T1, human Nurr1 ligand binding domain (LBD) fused to the Gal4 DNA binding domain; details: for comparison; cited from earlier work

Structure (SMILES) | EC50 [1] | fold act. (maximum Nurr1 activation vs. DMSO (0.1 %)) [1] | effect on Nurr1 LBD homodimerization (HTRF) (Nurr1 LBD) | fold act. (maximum Nurr1 activation vs. DMSO (0.1 %)) [2]
Clc1ccc(-c2ccc(CNc3ccnc4cc(Cl)ccc34)o2)cc1 [3 j, 7‐Chloro‐N‐((5‐(4‐chlorophenyl)furan‐2‐yl)methyl)quinolin‐4‐amine] | 8 ± 1 µM | 2.5±0.1 fold | diminished dimerization; also recorded: diminished Nurr1 homodimerization | 
CCN(CC)Cc1cc(Nc2ccnc3cc(Cl)ccc23)ccc1O [AQ, amodiaquine] |  |  |  | 3.6 fold and 3.6±0.1 fold
CCN(CC)CCCC(C)Nc1ccnc2cc(Cl)ccc12 (stereo not shown) [CQ, chloroquine] |  |  |  | 2.0±0.1 fold
Nc1ccnc2cc(Cl)ccc12 [compound 3, 4‐Amino‐7‐chloroquinoline] |  |  |  | 2.5 fold and 2.5±0.4 fold
O=C(Nc1ccnc2cc(Cl)ccc12)c1ccc(-c2ccc(Cl)cc2)o1 [compound 4, 5‐(4‐Chlorophenyl)‐N‐(7‐chloroquinolin‐4‐yl)furan‐2‐carboxamide] | 3 ± 0.1 µM | 2.0±0.1 fold |  | 
Clc1ccc(-c2ccc(CN3CCOc4cc(Cl)ccc43)o2)cc1 [compound 5, 7‐Chloro‐4‐((5‐(4‐chlorophenyl)furan‐2‐yl)methyl)‐3,4‐dihydro‐2H‐benzo[b][1,4]oxazine] | 47 ± 13 µM | 2.0±0.2 fold |  | 
